≈ marks a conversion by molar mass, not a printed value. Where two headings read alike, the source gives them in different places.
Legend:
[1] = test system: human prostatic cancer cells (LNCaP, PC-3, and DU-145) and fibroblast cells; details: PC-3, DU-145 and fibroblast cells, US 2006/0154903; cited from earlier work
[2] = Solubility of betulin in single and mixed polar organic solvents; type: physicochemical; details: organic solvent or mixture
Description: This recrystallization step is an intermediate step for obtaining ultrapure betulin of 99.5% or more and highly-pure betulinic acid of 95% or more. The outer bark and inner bark of a birch tree generally includes betulin, betulinic acid, lupeol (CAS 545-47-1) and polar pigment components. […] When the outer bark of a birch tree is extracted using such a polar organic solvent, a crude extract including 70 ∼ 83% of betulin, 4 ∼ 8% of betulinic acid and residual polar pigment components can be obtained. In this case, in order to use betulin and betulinic acid as intermediate materials for fine chemical products or medical supplies or additives for enhancing antiviral activity, the crude extract is recrystallized.
Preferably, a mixture of organic solvents having a density range of 0.91 g/mL ∼ 1.37 g/mL may be used. […] The crude extract is recrystallized using such a mixture of organic solvents to obtain a high-quality crystallized product (including a secondary crystallized product) including 94 ∼ 96.5% of betulin, 3 ∼ 4% of betulinic acid and residual polar pigment components, and then ultrapure betulin is produced using a 4-bed eluent swing continuous adsorption unit.

herpes simplex viruses = details: betulin mixed with acyclovir; Gong et al. 2004; cited from earlier work

C=C(C)[C@@H]1CC[C@]2(C(=O)O)CC[C@]3(C)[C@H](CC[C@@H]4[C@@]5(C)CCC(=O)C(C)(C)[C@@H]5CC[C@]43C)[C@@H]12 [butulonic acid]
inhibiting the growth of human prostatic cancer cells and fibroblast cells [1]: has an effect on inhibiting the growth

C=C(C)[C@@H]1CC[C@]2(CO)CC[C@]3(C)[C@H](CC[C@@H]4[C@@]5(C)CC[C@H](O)C(C)(C)[C@@H]5CC[C@]43C)[C@@H]12 [betulin]
solubility ([2]; chloroform, at 60.5°C, read-out: solubility of betulin in chloroform): ≤ 40.7 mg/mL
solubility ([2]; chloroform:ethanol 18:82 v/v, density = 0.91 g/mL, at 60.5°C, read-out: solubility of betulin in the mixed solvent of chloroform and ethanol): 38.6 mg/mL (≈ 87.2 mM)
solubility ([2]; chloroform:ethanol 57:43 v/v, density = 1.19 g/mL, at 60.5°C, read-out: solubility of betulin in the mixed solvent of chloroform and ethanol): 140 mg/mL (≈ 316 mM)
solubility ([2]; chloroform:ethanol 82:18 v/v, density = 1.37 g/mL, at 60.5°C, read-out: solubility of betulin in the mixed solvent of chloroform and ethanol): 163 mg/mL (≈ 368 mM)
solubility ([2]; ethanol, at 77.1°C, read-out: solubility of betulin in ethanol): ≤ 23 mg/mL
solubility ([2]; ethanol, at 78°C, read-out: solubility of betulin in ethanol): ≤ 18.5 mg/mL
solubility ([2]; ethyl acetate, at 60.5°C, read-out: solubility of betulin in ethyl acetate): ≤ 40.7 mg/mL
solubility ([2]; ethyl acetate, at 77.1°C, read-out: solubility of betulin in ethyl acetate): ≤ 23 mg/mL
solubility ([2]; methanol, at 64.7°C, read-out: solubility of betulin in methanol): ≤ 6.73 mg/mL
antiviral effects to herpes simplex viruses (herpes simplex viruses): antiviral effects were provided
